For one experiment, the system named is HepG2 WFS1 KO. Description: In vitro cell viability (CellTiter-Glo), HepG2 WFS1 KO. To be noted: for IC50: 96 hours; for shift in IC50 on depletion of WFS1 from HepG2 cells: WFS1 KO vs parental HepG2, 96 hours. The format is cell-based. The text has this:
A double cleavage strategy was employed to remove large fragments from the WFS1 locus. Suitable target sites in WFS1 exon 8 were first selected using CRISPR design software to rank suitable target sites and computationally predict off-target sites for each intended target. Six top guide RNA sequences are identified and screened for activity using the Surveyor Mutation Detection Kit (Integrated DNA Technologies). Then, the best 2 guide RNAs were cloned into GeneArt OFP CRISPR nuclease vectors (Thermofisher, Cat #A21174) separately and co-transfected into HepG2 cells using nucleofection (4D Nucleofector X, Lonza). Cells were sorted by FACS 48 hrs later to enrich for the OFP positive cell population. The OFP positive cell population were plated into 96-well plates at 0.5-5 cells/well to isolate clonal cell lines. After allowing cells to expand for 2-3 weeks, plates were inspected for presence of colonies. When colonies became more than 70% confluent, they were dissociated with trypsin and were further expanded. Cell clones with homozygous double cleavage of WFS1 exon 8 were detected with PCR and confirmed with DNA sequencing.
HEK293 cells containing empty pCLPCx vector (HEK293 empty), HEK293 cells stably over-expression WFS1 (HEK293 WFS1), HepG2, and HepG2 cells where WFS1 was depleted via CRISPR/Cas9 (HepG2 WFS1 KO) cells were plated into 96-well black plates (Corning, product #3904) in 100 microliters of complete DMEM cell culture media [DMEM (Life Technologies, product #11960-051) media supplemented with 10% FBS (Hyclone, catalog #SH30071.03), antimycotic/antibiotic (Life Technologies, product #15240-062), and Glutamax (Life Technologies, product #35050-061)] at 1,000 (HEK293) or 5,000 (HepG2) cells per well. Cells were allowed to attach and grow overnight, after which compounds are added at various concentrations. Cell viability was assessed 96 hrs after compound addition with CellTiter-Glo reagent (Promega, catalog #G7570) according to manufacturer's protocol and measurement on a Pherastar luminescence plate reader (BMG Labtech).
To determine the effect of WFS1 depletion on compound mediated inhibition of cell viability, parental HepG2 cells and HepG2 cells where WFS1 was deleted by CRISPR/Cas9 were exposed to increasing concentrations of either Compound 136 or Compound 253 for 96 hours after which time viability was determined using Cell Titer Glo reagent (Promega). […] The IC50s for the viability of both the HepG2 parental and WFS1 knockout cells are summarized in Table 47: A<0.5 μM; 0.5 μM≤<2.0 μM; 2.0 μM≤C<10.0 μM; D≥[…].

Experiment [1] concerns Colo205-TCF/LEF-Luciferase (Luc) tumor. Description: In vivo inhibition of TCF/LEF reporter activity in Colo-205 tumors. Set-up: concentration or dose not given beside the values. To be noted: TCF/LEF luciferase reporter in Colo-205 tumors, nu/nu mice, oral gavage. In outline: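 Female nu/nu mice carried subcutaneous Colo205-TCF/LEF-luciferase tumours (200–500 mm^3), n=4 per group. Compound was given by oral gavage in 1:3:5:1 EtOH:DMSO:PEG-400:H2O at 10 ml/kg, with vehicle as control. Luciferase activity in tumour lysates (Steady-Glo) was normalised to BCA protein.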

The mark [2] stands for this setting: Homo sapiens, HepG2 WFS1 knockout, read-out: HepG2 WFS1 KO viability.
Setting [3] is: HepG2 WFS1 knockout, read-out: HepG2 WFS1 KO viability.

Read-outs that look alike come from different tables or passages of the source. A value given as a limit tells only on which side of the number the result lay.

Regarding `Cc1nc(NCc2cnn(Cc3ccc(C(F)(F)F)nc3[C@@H](C)O)c2)nc2c1NC(=O)[C@H](C)N2C` (single isomer, unassigned) [Compound 420], the IC50 with HepG2 WFS1 KO (setting [2]) is at least 10 µM. The “Percent Remaining Activity at 8 hrs after Dosing” value (“Percent Remaining Activity” below) in experiment [1] is listed as 28%.
In the same order, the values of `Cc1nc(NCc2cnn(Cc3ccc(F)cc3)c2)nc2c1N(C)C(=O)[C@H](C)N2C` [Compound 1, (7S)-2-(((1-(4-fluorobenzyl)-1H-pyrazol-4-yl)methyl)amino)-4,5,7,8-tetramethyl-7,8-dihydropteridin-6(5H)-one] are at least 10 µM and 32%.
Regarding `Cc1nc(NCc2cnn(Cc3ccc(C(F)(F)F)nc3)c2)nc2c1NC(=O)[C@H](C)N2C` [Compound 136, (7S)-4,7,8-trimethyl-2-(((1-((6-(trifluoromethyl)pyridin-3-yl)methyl)-111-pyrazol-4-yl)methyl)amino)-7,8-dihydropteridin-6(5H)-one], the IC50 with HepG2 WFS1 KO (setting [3]) is at least 10 µM; in the experiment on HepG2 WFS1 KO (cell viability, HepG2 WFS1 KO, Cell Titer Glo, read-out: IC50), above 27 µM; with HepG2 WFS1 KO (cell viability, HepG2 WFS1 KO, read-out: IC50 class) it was at least 10 µM. The “shift in IC50 on depletion of WFS1 from HepG2 cells” value in the experiment on HepG2 WFS1 KO (cell viability) is “greater than 100 fold”. Moreover, in experiment [1], the “Percent Remaining Activity” value was determined as 24%.
As to `Cc1nc(N[C@H]2C[C@H](Oc3cc(F)c(F)c(F)c3)C2)nc2c1N(C)C(=O)[C@H](C)N2C` [Compound 253, (7S)-4,5,7,8-tetramethyl-2-((trans-3-(3,4,5-trifluorophenoxy)cyclobutyl)amino)-7,8-dihydropteridin-6(5H)-one], the IC50 in the experiment with HepG2 WFS1 KO (Homo sapiens, cell viability, HepG2 WFS1 KO, Cell Titer Glo, read-out: IC50) was 4.4 µM; in the experiment on HepG2 WFS1 KO (Homo sapiens, cell viability, HepG2 WFS1 KO, read-out: IC50 class) it was 2 to 10 µM. The “shift in IC50 on depletion of WFS1 from HepG2 cells” value with HepG2 WFS1 KO (cell viability) is “greater than 5 fold”. In experiment [1], the “Percent Remaining Activity” value was 15%.
`Cc1nc(NCc2cnn(Cc3ccc(Cl)nc3)c2)nc2c1NC(=O)[C@H](C(C)C)N2C` [Compound 409, (7S)-2-(((1-((6-chloropyridin-3-yl)methyl)-1H-pyrazol-4-yl)methyl)amino)-7-isopropyl-4,8-dimethyl-7,8-dihydropteridin-6(5H)-one]: the IC50 in the experiment on HepG2 WFS1 KO (setting [2]) is at least 10 µM. The “Percent Remaining Activity” value in experiment [1] is recorded as 27%.
In the same order, the values of `Cc1nc(NCc2cnn(Cc3ccc(C(F)(F)F)nc3C(C)(C)O)c2)nc2c1NC(=O)[C@H](C)N2C` [Compound 416, (7S)-2-(((1-((2-(2-hydroxypropan-2-yl)-6-(trifluoromethyl)pyridin-3-yl)methyl)-1H-pyrazol-4-yl)methyl)amino)-4,7,8-trimethyl-7,8-dihydropteridin-6(5H)-one] are at least 10 µM and 22%.
With `Cc1nc(NCc2cnn(Cc3ccc(C(F)(F)F)nc3Cl)c2)nc2c1NC(=O)[C@H](C)N2C` [Compound 418, (7S)-2-(((1-((2-chloro-6-(trifluoromethyl)pyridin-3-yl)methyl)-1H-pyrazol-4-yl)methyl)amino)-4,7,8-trimethyl-7,8-dihydropteridin-6(5H)-one], the IC50 in the experiment on HepG2 WFS1 KO (setting [2]) is at least 10 µM.
Consider `Cc1nc(NCc2cnn(Cc3ccc(C(F)(F)F)nc3C(C)O)c2)nc2c1NC(=O)[C@H](C)N2C` (stereo partly drawn) [Compound 419, (7S)-2-(((1-((2-((S)-1-hydroxyethyl)-6-(trifluoromethyl)pyridin-3-yl)methyl)-1H-pyrazol-4-yl)methyl)amino)-4,7,8-trimethyl-7,8-dihydropteridin-6(5H)-one], for which the IC50 in the experiment on HepG2 WFS1 KO (setting [2]) was at least 10 µM.
In the case of `Cc1nc(NCc2cnn(Cc3ccc(F)nc3)c2)nc2c1NC(=O)[C@H](C1CC1)N2C` [Compound 421, (7S)-7-cyclopropyl-2-(((1-((6-fluoropyridin-3-yl)methyl)-1H-pyrazol-4-yl)methyl)amino)-4,8-dimethyl-7,8-dihydropteridin-6(511)-one], the IC50 in the experiment with HepG2 WFS1 KO (setting [3]) was at least 10 µM. Moreover, in experiment [1], the “Percent Remaining Activity” value stood at 23%.
For `Cc1cc(F)ncc1Cn1cc(CNc2nc(C)c3c(n2)N(C)[C@@H](C(C)C)C(=O)N3)cn1` [Compound 423, (7S)-2-(((1-((6-fluoro-4-methylpyridin-3-yl)methyl)-1H-pyrazol-4-yl)methyl)amino)-7-isopropyl-4,8-dimethyl-7,8-dihydropteridin-6(5H)-one], the IC50 in the experiment on HepG2 WFS1 KO (setting [2]) is at least 10 µM. Further, the “Percent Remaining Activity” value in experiment [1] turned out to be 70%.
Regarding `Cc1nc(NCc2cnn(Cc3cnc(Cl)c(F)c3)c2)nc2c1NC(=O)[C@H](C(C)C)N2C` [Compound 424, (7S)-2-(((1-((6-chloro-5-fluoropyridin-3-yl)methyl)-1H-pyrazol-4-yl)methyl)amino)-7-isopropyl-4,8-dimethyl-7,8-dihydropteridin-6(5H)-one], in the experiment on HepG2 WFS1 KO (setting [2]), the IC50 was at least 10 µM.
Regarding `Cc1ncc(Cn2cc(CNc3nc(C)c4c(n3)N(C)[C@@H](C(C)C)C(=O)N4)cn2)cc1F` [Compound 425, (7S)-2-(((1-((5-fluoro-6-methylpyridin-3-yl)methyl)-1H-pyrazol-4-yl)methyl)amino)-7-isopropyl-4,8-dimethyl-7,8-dihydropteridin-6(5H)-one], the IC50 with HepG2 WFS1 KO (setting [2]) is at least 10 µM. Moreover, the “Percent Remaining Activity” value in experiment [1] is listed as 29%.
Consider `CC[C@H]1C(=O)Nc2cnc(NCc3cnn(Cc4ccc(C(F)(F)F)nc4)c3)nc2N1C` [Compound 427, (7S)-7-ethyl-8-methyl-2-(((1-((6-(trifluoromethyl)pyridin-3-yl)methyl)-1H-pyrazol-4-yl)methyl)amino)-7,8-dihydropteridin-6(5H)-one], for which the IC50 in the experiment on HepG2 WFS1 KO (setting [2]) is at least 10 µM.
For `Cc1nc(NCc2cn(Cc3ccc(C(F)(F)F)nc3)cn2)nc2c1NC(=O)[C@H](C)N2C` [Compound 428, (S)-4,7,8-trimethyl-2-(((1-((6-(trifluoromethyl)pyridin-3-yl)methyl)-1H-imidazol-4-yl)methyl)amino)-7,8-dihydropteridin-6(5H)-one], in the experiment on HepG2 WFS1 KO (setting [2]), the IC50 was at least 10 µM.
Regarding “(7S)-2-(((1-((6-fluoro-2-isopropylpyridin-3-yl)methyl)-1H-pyrazol-4-yl)methyl)(methyl)amino)-7-isopropyl-4,8-dimethyl-7,8-dihydropteridin-6(5H)-one [Compound 430]”, the IC50 with HepG2 WFS1 KO (setting [3]) was at least 10 µM.

The values above are taken from patent publication US20230312587A1, “PTERIDINONE COMPOUNDS AND USES THEREOF” (Vertex Pharmaceutical Incorporated, priority 2018, published 2023).
